Source: patent publication US20240368154A1 (GENOSCO Inc., priority 2023, published 2024)
Where a name gives a salt, the structure may show the parent alone.

Assays:
[1] = target: T1, Recombinant ROCK1 (amino acids 1-477) (Homo sapiens, UniProt Q13464); test: ROCK inhibition assay, LANCE Ultra TR-FRET kinase assay; assay type: biochemical; conditions: at Km of ATP (table title), method: 1 mM ATP, 50 nM ULight-CREBtide substrate, 1 hour, room temperature
T1 construct: Recombinant ROCK1 (amino acids 1-477)
Method: (§1) Kinase IC50 was determined through an in vitro assay based on LANCE Ultra TR-FRET (Time-Resolved Fluorescence Resonance Energy Transfer) homogeneous technologies method (Perkin Elmer). Recombinant ROCK1 (amino acids 1-477) and ROCK2 (amino acids 5-554) proteins were purchased from Carna Biosciences and SignalChem. Compound activities were measured by Envision and IC50s were calculated. The assays were performed in white LUMITRAC™ 200 96 well half-area microplates from Greiner Bio-One. The kinase reaction buffer consisted of 50 mM HEPES pH 7.5, 1 mM EGTA, 10 mM MgCl2, 2 mM DTT and 0.01% Tween-20. Kinases were incubated with 50 nM (ULight-CREBtide) substrate in the presence of 1 mM (ROCK1) or 1 mM (ROCK2) of ATP. The kinase reaction was carried out for 1 hour before addition of a stopping buffer to a final of 10 mM EDTA and 0.6 nM of LANCE Ultra Europium anti-phospho-CREB (Ser133) antibody (PerkinElmer TRF0200) in LANCE detection buffer. All assay incubations were performed at room temperature, and the microplates were sealed with polyester film during that time. The reaction was incubated for 1 hour, and the signal was read in Envision in TR-FRET mode (excitation at 320 nm and emission at 615/665 nm).
(§2) As used herein, a way to describe potency of inhibitory activity (nM) is a value of inhibitory activity at 50% (IC50).

[2] = target: T2, Recombinant ROCK2 (amino acids 5-554) (Homo sapiens, UniProt O75116); test: as above; assay type: biochemical; conditions: at Km of ATP (table title), method: 1 mM ATP, 50 nM ULight-CREBtide substrate, 1 hour, room temperature
T2 construct: ROCK2 (amino acids 5-554)
Method: as §1, §2

T2 sequence (O75116 5-554): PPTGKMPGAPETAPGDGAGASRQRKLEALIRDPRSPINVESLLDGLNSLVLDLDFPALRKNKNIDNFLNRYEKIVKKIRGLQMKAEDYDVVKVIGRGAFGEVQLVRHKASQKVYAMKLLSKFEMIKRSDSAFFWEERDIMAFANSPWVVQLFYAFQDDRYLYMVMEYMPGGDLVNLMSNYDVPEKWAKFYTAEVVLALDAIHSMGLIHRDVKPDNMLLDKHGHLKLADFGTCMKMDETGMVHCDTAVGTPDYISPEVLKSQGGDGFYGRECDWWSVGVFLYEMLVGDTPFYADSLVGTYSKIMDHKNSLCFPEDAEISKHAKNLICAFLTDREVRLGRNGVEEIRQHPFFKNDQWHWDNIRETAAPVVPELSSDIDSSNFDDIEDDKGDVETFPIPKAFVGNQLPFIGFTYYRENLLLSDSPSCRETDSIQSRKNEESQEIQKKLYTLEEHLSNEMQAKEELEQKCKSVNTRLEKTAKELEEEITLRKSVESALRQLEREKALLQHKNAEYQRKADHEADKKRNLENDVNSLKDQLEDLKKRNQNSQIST
T1 sequence (Q13464 1-477): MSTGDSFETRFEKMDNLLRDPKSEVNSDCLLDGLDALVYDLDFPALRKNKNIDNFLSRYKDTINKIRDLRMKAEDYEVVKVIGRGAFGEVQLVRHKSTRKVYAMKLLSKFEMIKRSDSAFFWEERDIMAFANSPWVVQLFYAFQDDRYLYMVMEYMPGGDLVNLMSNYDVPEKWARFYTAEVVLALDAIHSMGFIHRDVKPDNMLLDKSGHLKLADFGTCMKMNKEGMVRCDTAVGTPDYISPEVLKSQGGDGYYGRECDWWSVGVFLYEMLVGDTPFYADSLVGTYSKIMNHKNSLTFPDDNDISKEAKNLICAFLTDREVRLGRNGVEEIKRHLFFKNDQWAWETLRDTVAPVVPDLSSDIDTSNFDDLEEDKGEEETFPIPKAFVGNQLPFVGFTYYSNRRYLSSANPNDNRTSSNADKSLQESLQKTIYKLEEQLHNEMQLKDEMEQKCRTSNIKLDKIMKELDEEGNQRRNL

SMILES | IC50 [1] [nM] | IC50 [2] [nM] | IC50 ([1]; hydrochloride) [nM] | IC50 ([2]; hydrochloride) [nM]
COc1ccc2c(c1)CC(C(=O)c1cn(CCO)c3cc(-c4c[nH]nc4Cl)ccc13)CO2 (centres unmarked) [Compound 2-15] | < 10 | < 10 |  | 
COc1n[nH]cc1-c1ccc2c(C(=O)C3COc4ccc(Cl)cc4C3)cn(C[C@H](C)O)c2c1 (some centres unmarked) [Compound 1-43] | 51 to 500 | 11 to 50 |  | 
COc1ccc2c(c1)CC(C(=O)c1cn(CC(C)(C)O)c3cc(-c4cn[nH]c4F)ncc13)CO2 (centres unmarked) [Compound 1-28] | < 10 | < 10 |  | 
O=C(c1cn(CC2CC(O)C2)c2cc(-c3cn[nH]c3Cl)ncc12)C1COc2ccc(Cl)cc2C1 (centres unmarked) [Compound 1-38] | 11 to 50 | < 10 |  | 
CC(O)Cn1cc(C(=O)C2COc3ccc(F)cc3C2)c2cnc(-c3c[nH]nc3Cl)cc21 (centres unmarked) [Compound 1-14] | < 10 | < 10 |  | 
COc1n[nH]cc1-c1ccc2c(C(=O)[C@@H]3COc4ccc(Cl)cc4C3)cn(CC(C)O)c2c1 (some centres unmarked) [Compound 1-42] | 11 to 50 | < 10 |  | 
COc1n[nH]cc1-c1cc2c(cn1)c(C(=O)C1COc3ccc(Cl)cc3C1)cn2CCO (centres unmarked) [Compound 1-1] | > 501 | > 501 |  | 
C[C@@H](O)Cn1cc(C(=O)C2COc3ccc(Cl)cc3C2)c2cnc(-c3c[nH]nc3Cl)cc21 (some centres unmarked) [Compound 1-8] | 11 to 50 | < 10 |  | 
CC(O)Cn1cc(C(=O)C2COc3ccc(Cl)cc3C2)c2ccc(-c3c[nH]nc3Cl)cc21 (centres unmarked) [Compound 1-39] | 11 to 50 | 11 to 50 |  | 
COc1[nH]ncc1-c1ncc2c(C(=O)C3COc4ccc(Cl)cc4C3)cn(CC(C)(C)O)c2n1 (centres unmarked) [Compound 1-58] | 11 to 50 | < 10 |  | 
O=C(c1cn(CCO)c2cc(-c3c[nH]nc3Cl)cnc12)C1COc2ccc(Cl)cc2C1 (centres unmarked) [Compound 1-5] | 51 to 500 | 11 to 50 |  | 
O=C(c1cn(CCO)c2cc(-c3c[nH]nc3Cl)ccc12)C1COc2ccccc2C1 (centres unmarked) [Compound 2-6] | 11 to 50 | < 10 |  | 
O=C(c1cn(CCO)c2cc(-c3cn[nH]c3)ccc12)C1COc2cc(Cl)ccc2O1 (centres unmarked) [Compound 2-10] | 51 to 500 | 11 to 50 |  | 
C[C@H](O)Cn1cc(C(=O)[C@@H]2COc3ccc(Cl)cc3C2)c2cnc(-c3cn[nH]c3Cl)cc21 [Compound 1-12] | 11 to 50 | < 10 |  | 
COc1[nH]ncc1-c1ncc2c(C(=O)C3COc4ccc(F)cc4C3)cn(CC(C)(C)O)c2n1 (centres unmarked) [Compound 1-52] | 51 to 500 | 11 to 50 |  | 
COc1n[nH]cc1-c1ccc2c(C(=O)C3COc4ccc(Cl)cc4C3)cn(C[C@@H](C)O)c2c1 (some centres unmarked) [Compound 1-44] | 11 to 50 | 11 to 50 |  | 
COc1[nH]ncc1-c1ncc2c(C(=O)C3COc4ccc(Cl)cc4C3)cn(C[C@H](C)O)c2n1 (some centres unmarked) [Compound 1-53] | 51 to 500 | 11 to 50 |  | 
CC(C)(O)Cn1cc(C(=O)[C@@H]2COc3ccc(Cl)cc3C2)c2cnc(-c3cn[nH]c3F)nc21 [Compound 1-55] | < 10 | < 10 |  | 
COc1[nH]ncc1-c1cc2c(cn1)c(C(=O)[C@H]1COc3ccc(Cl)cc3C1)cn2C[C@H](C)O [Compound 1-34] | 51 to 500 | 11 to 50 |  | 
C[C@H](O)Cn1cc(C(=O)C2COc3ccc(Cl)cc3C2)c2cnc(-c3cn[nH]c3Cl)cc21 (some centres unmarked) [Compound 1-7] | 11 to 50 | < 10 |  | 
O=C(c1cn(CCO)c2cc(-c3c[nH]c4ncccc34)ccc12)C1COc2ccccc2C1 (centres unmarked) [Compound 2-5] | 51 to 500 | 11 to 50 |  | 
C[C@H](O)Cn1cc(C(=O)[C@@H]2COc3ccc(Cl)cc3C2)c2cnc(-c3cn[nH]c3Cl)cc21 [Compound 1-9] | 11 to 50 | < 10 |  | 
CC(O)Cn1cc(C(=O)[C@@H]2COc3ccc(Cl)cc3C2)c2ccc(-c3c[nH]nc3F)cc21 (some centres unmarked) [Compound 1-41] | 11 to 50 | < 10 |  | 
C[C@@H](O)Cn1cc(C(=O)C2COc3ccc(F)cc3C2)c2cnc(-c3c[nH]nc3Cl)cc21 (some centres unmarked) [Compound 1-21] | < 10 | < 10 |  | 
O=C(c1cn(CCO)c2cc(-c3c[nH]nc3F)ccc12)C1COc2ccc(Cl)cc2C1 (centres unmarked) [Compound 2-16] | 11 to 50 | < 10 |  | 
CC(C)(O)Cn1cc(C(=O)[C@@H]2COc3ccc(Cl)cc3C2)c2cnc(-c3c[nH]nc3Cl)cc21 [Compound 1-19] | < 10 | < 10 |  | 

SMILES | IC50 [1] [nM] | IC50 [2] [nM] | IC50 ([1]; hydrochloride) [nM] | IC50 ([2]; hydrochloride) [nM]
CC[C@H](O)Cn1cc(C(=O)C2COc3ccc(Cl)cc3C2)c2cnc(-c3cn[nH]c3F)cc21 (some centres unmarked) [Compound 1-36] | 51 to 500 | 11 to 50 |  | 
CC(C)(O)Cn1cc(C(=O)[C@@H]2COc3ccc(Cl)cc3C2)c2cnc(-c3c[nH]nc3Cl)cc21 [Compound 1-17] | < 10 | < 10 |  | 
C[C@@H](O)Cn1cc(C(=O)[C@@H]2COc3ccc(Cl)cc3C2)c2cnc(-c3cn[nH]c3Cl)cc21 [Compound 1-10] | 11 to 50 | < 10 |  | 
COc1n[nH]cc1-c1ccc2c(C(=O)C3COc4ccc(Cl)cc4C3)cn(CCO)c2c1 (racemic) [Compound 2-17] | 11 to 50 | 11 to 50 |  | 
COc1ccc2c(c1)C[C@H](C(=O)c1cn(C[C@H](C)O)c3cc(-c4cn[nH]c4F)ncc13)CO2 [Compound 1-26] | < 10 | < 10 |  | 
CC(O)Cn1cc(C(=O)C2COc3ccc(Cl)cc3C2)c2cnc(-c3c[nH]nc3Cl)cc21 (centres unmarked) [Compound 1-6] | 11 to 50 | < 10 |  | 
CC(C)(O)Cn1cc(C(=O)[C@H]2COc3ccc(Cl)cc3C2)c2cnc(-c3c[nH]nc3Cl)cc21 [Compound 1-18] | > 501 | 51 to 500 |  | 
COc1n[nH]cc1-c1ccc2c(C(=O)C3COc4ccc(Cl)cc4C3)nn(CC#N)c2c1 (centres unmarked) [Compound 2-29] | > 501 | 51 to 500 |  | 
COc1ccc2c(c1)CC(C(=O)c1cn(C[C@H](C)O)c3cc(-c4cn[nH]c4F)ncc13)CO2 (some centres unmarked) [Compound 1-25] | 11 to 50 | < 10 |  | 
O=C(c1cn(CCO)c2cc(-c3cn[nH]c3)ccc12)C1COc2ccccc2O1 (centres unmarked) [Compound 2-1, 2,3-Dihydro-1,4-benzodioxin-3-yl-[1-(2-hydroxyethyl)-6-(1H-pyrazol-4-yl)indol-3-yl]methanone] | < 10 | < 10 |  | 
COc1n[nH]cc1-c1cc2c(cn1)c(C(=O)C1COc3ccc(Cl)cc3C1)cn2CCO (centres unmarked) [Compound 1-59, hydrochloride] |  |  | 51 to 500 | 11 to 50
O=C(c1cn(CCO)c2cc(-c3c[nH]c4ncccc34)ccc12)C1COc2ccccc2O1 (centres unmarked) [Compound 2-3] | 51 to 500 | 11 to 50 |  | 
COc1ccc2c(c1)OC(C(=O)c1cn(CCO)c3cc(-c4cn[nH]c4)ccc13)CO2 (centres unmarked) [Compound 2-14] | 11 to 50 | < 10 |  | 
C[C@@H](O)Cn1cc(C(=O)[C@@H]2COc3ccc(F)cc3C2)c2cnc(-c3cn[nH]c3F)nc21 [Compound 1-51] | < 10 | < 10 |  | 
COc1ccc2c(c1)OCC(C(=O)c1cn(CCO)c3cc(-c4cn[nH]c4)ccc13)C2 (centres unmarked) [Compound 2-8] | 51 to 500 | 51 to 500 |  | 
O=C(c1cn(CC2CC(O)C2)c2cc(-c3cn[nH]c3F)ncc12)C1COc2ccc(Cl)cc2C1 (centres unmarked) [Compound 1-37] | 51 to 500 | 11 to 50 |  | 
C[C@H](O)Cn1cc(C(=O)[C@@H]2COc3ccc(Cl)cc3C2)c2cnc(-c3cn[nH]c3Cl)cc21 [Compound 1-11] | 11 to 50 | 11 to 50 |  | 
CC(C)(O)Cn1cc(C(=O)[C@@H]2COc3ccc(Cl)cc3C2)c2cnc(-c3cn[nH]c3F)cc21 [Compound 1-31] | < 10 | < 10 |  | 
COc1n[nH]cc1-c1ccc2c(C(=O)[C@@H]3COc4ccc(F)cc4C3)cn(CCO)c2c1 (single isomer, unassigned) [Compound 2-21] | 11 to 50 | < 10 |  | 
COc1[nH]ncc1-c1cc2c(cn1)c(C(=O)[C@@H]1COc3ccc(Cl)cc3C1)cn2C[C@H](C)O [Compound 1-33] | 11 to 50 | < 10 |  | 
CC(C)(O)Cn1cc(C(=O)C2COc3ccc(Cl)cc3C2)c2cnc(-c3cn[nH]c3Cl)nc21 (centres unmarked) [Compound 1-57] | < 10 | < 10 |  | 
COc1n[nH]cc1-c1ccc2c(C(=O)C3(C)COc4ccccc4O3)nn(CCO)c2c1 (centres unmarked) [Compound 2-31] | 51 to 500 | 51 to 500 |  | 
C[C@H](O)Cn1cc(C(=O)[C@@H]2COc3ccc(Cl)cc3C2)c2cnc(-c3cn[nH]c3Cl)nc21 [Compound 1-46] | < 10 | < 10 |  | 
O=C(c1cn(CCO)c2cc(-c3cn[nH]c3)ccc12)C1COc2cc(Cl)c(Cl)cc2O1 (centres unmarked) [Compound 2-12] | 51 to 500 | 51 to 500 |  | 
C[C@@H](O)Cn1cc(C(=O)C2COc3ccc(F)cc3C2)c2cnc(-c3cn[nH]c3F)nc21 (some centres unmarked) [Compound 1-48] | < 10 | < 10 |  | 
O=C(c1nn(CCO)c2cc(-c3cn[nH]c3)ccc12)C1COc2ccc(Cl)cc2O1 (centres unmarked) [Compound 3-4] | 51 to 500 | < 10 |  | 
